This note sets out measurements from US20260000496A1, “MATERIALS AND METHODS FOR DRUG-INDUCED GINGIVAL OVERGROWTH” (Optimed Technology, Inc., priority 2019, published 2026).

Experiment [1] relates to TNF-α in Oral Keratinocytes. As to the kind of experiment: TNF-α ELISA in oral keratinocytes. It counts as cell-based, human. The conditions noted are these: for amount of secreted TNF-α by ELISA: LPS (10 μg/ml), FA (10 μg/ml), 24 hours, p<0.05. The procedure: (§1) Cell Culture. Normal human oral keratinocytes (NOKSI) and fibroblast (HOF) cells were maintained in Dulbecco […] Eagle's medium (Sigma-Aldrich, St. Louis, MO, USA) supplemented with 10% fetal bovine serum (Atlas Bio-logicals, Fort Collins, CO, USA) and 100 units/mL penicillin and 100 μg/mL streptomycin (LifeTechnologies, Carlsbad, CA, USA). Cells were grown in incubator at 37° C. in a humidified chamber with 5% CO2.
(§2) Drugs treatment in cell culture. The cells were treated alone or with different combination of lipopolysaccharide, cyclosporine, phenytoin, and folic acid. All of them were purchased from Sigma-Aldrich (St. Louis, MO, USA). Each of them were used from 0 μg/ml to 40 μg/ml and the optimum concentration were found 10 μg/ml.
Enzyme linked immunosorbent assay (ELISA). ELISA was conducted with a mouse TNF-α ELISA Kit (PeproTech, USA) and TGF-β Emax ImmunoAssay System (Promega USA) to detect the TNF-α and TGF-β respectively. After normalization of the total cells or tissue protein lysates, 20 μg protein of each sample was used for the detection of TNF-α or TGF-β. ELISA was performed according to the manufacturers' instructions. For TNF-α, 100 ng/100 μl of capture antibody was added to each well of 96 well assay plate and incubated for overnight at room temperature. […] Optical absorbing values were read at 405 and 450 nm and corrected by 650 nm. […] TMB One Solution was added for 15 minutes and the reaction were stopped using 100 μl of 1N hydrochloric acid and the absorbance at 450 nm were recorded on a plate reader. Data were analyzed using excel software. […]
Folic acid reduces TNF-α oral keratinocytes. […] After adhesion, the cells were treated with different concentration of folic acid (2.5 μg/ml-40 μg/ml) and amount of TNF-α was measured by ELISA (p<0.05).
Folic acid reduces TNF-α in Oral Keratinocytes on LPS stimulation. […] The amount of secreted TNF-α was determined by ELISA (p<0.05).
Oral Keratinocytes were seeded and treated with LPS (10 μg/ml), Phe (10 μg/ml), and FA (10 μg/ml) for 24 hours. The amount of secreted TNF-α was determined by ELISA. […]
A general note: ELISA stands for enzyme-linked immunosorbent assay.

The subject of another experiment is LITAF. As to the kind of experiment: Western blot of LITAF in oral keratinocytes. It counts as cell-based, human. The procedure: as §1, §2
Western blot analysis. Cells were seeded in 60 mm plates with a density of 5×10^5 cells per plate and washed briefly with Dulbecco's phosphate-buffered saline (Gibco, Waltham, MA, USA). Whole cell lysates were prepared using RIPA lysis buffer containing protease inhibitor cocktail (Sigma-Aldrich). Total protein concentration was determined using the BCA reagent (Pierce, Waltham, MA, USA). 20 μg of total protein were resolved on sodium dodecyl sulfate-polyacrylamide gel electrophoresis and transferred to polyvinylidenedifluoride membrane and immunoblotted. The blots were incubated for 1 h in 1% bovine serum albumin (BSA) (Sigma-Aldrich) to block the non-specific bindings followed by over-night incubation in primary antibodies (MyD88 and pP65 from Cell Signaling Technology, and human LITAF ThermoFisher Sigma) at 4° C. on shaker. Next day, blots were washed for three times (10 min each) in Tris-buffered saline containing 1% Tween20 (TBST) followed by incubation with secondary antibody (Goat anti-rabbit IgG HRP) with 1:10,000 dilution for 1 h. Following washes, bands were visualized using gel documentation Imaging Systems (BioRad). The band intensities were quantified using software ImageJ (NIH, USA) and relative protein levels were normalized by β-actin (Cell Signaling). To perform the western blot of animal tissue samples, the gingival tissues were collected from both BABLB/c and C57BL/6 mice studies. The soft tissues were separated from the mandibular bone and then crunched. The Bradford assay was performed to measure the protein concentration of each sample. After normalization, 20 μg of whole tissue protein lysate were proceeded for western blot analysis.

Turning to `Nc1nc2ncc(CNc3ccc(C(=O)N[C@@H](CCC(=O)O)C(=O)O)cc3)nc2c(=O)[nH]1` [folic acid], the “amount of secreted TNF-α by ELISA” value is given as “reduces TNF-α” in experiment [1] (CSA (10 μg/ml)) and “inhibits Phenytoin-induced TNF-α” in experiment [1] (Phe (10 μg/ml)). For the same molecule, the “amount of TNF-α by ELISA” value in experiment [1] (folic acid […]-40 μg/ml alone, p<0.05 vs non-treated) is reported as “reduces TNF-α”. Moreover, the LITAF protein level result in the experiment with LITAF (LPS, CSA, FA each 10 μg/ml, 24 hours) was “inhibits CSA-induced expression”. The “amount of LITAF protein” value was “LITAF expression is reduced” with LITAF (LPS, Phe, FA each 10 μg/ml, 24 hours) and “dose dependent effect” with LITAF (different concentrations of folic acid (2.5-40 μg/ml), 24 hours). Moreover, the “LITAF by western blot” value in the experiment on LITAF (normal oral keratinocyte cells, FIG. 35) was “downregulation”.
